From PMC8329502 (Toxicology Reports, 2021)

Target: T1, cytochrome P450 1A2 (CYP1A2) (Homo sapiens, UniProt P05177)
T1 sequence (P05177 2-516): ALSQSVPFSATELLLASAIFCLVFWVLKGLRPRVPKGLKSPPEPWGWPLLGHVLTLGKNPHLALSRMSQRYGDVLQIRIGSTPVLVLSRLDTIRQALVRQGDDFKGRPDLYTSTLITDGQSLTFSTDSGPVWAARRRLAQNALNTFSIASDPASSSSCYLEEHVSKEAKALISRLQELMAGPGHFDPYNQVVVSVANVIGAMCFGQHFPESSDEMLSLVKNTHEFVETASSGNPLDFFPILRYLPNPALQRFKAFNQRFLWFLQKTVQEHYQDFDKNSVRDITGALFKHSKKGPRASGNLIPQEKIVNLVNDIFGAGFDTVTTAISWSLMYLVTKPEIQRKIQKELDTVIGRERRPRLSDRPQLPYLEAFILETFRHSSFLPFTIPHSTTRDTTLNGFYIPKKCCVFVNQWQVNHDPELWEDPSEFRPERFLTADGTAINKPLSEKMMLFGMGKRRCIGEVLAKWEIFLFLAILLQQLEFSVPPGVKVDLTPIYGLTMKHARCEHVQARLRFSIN
Assay: […]-caffeine 3-N-demethylation in 50-donor pooled human liver microsomes
Format: biochemical

Row | IC50 [µM] | Structure (SMILES)
1 | 0.0688 | COc1c2ccoc2cc2oc(=O)ccc12 [5-MOP, 5-methoxypsoralen]
2 | 0.277 | COc1c2ccoc2c(OC)c2oc(=O)ccc12 [ISOP, isopimpinellin]
